Results taken from publication PMC8968063, “Key features of inhibitor binding to the human mitochondrial pyruvate carrier hetero-dimer” (Molecular Metabolism, 2022).

Experiments:
[1] = target: T1, recombinant human MPC1L/MPC2 (Homo sapiens, UniProt O95563+P0DKB6); test: Electrospray mass spectrometry of MPC1L/MPC2 after reaction with inhibitors or sulfhydryl modifiers; details: for Mass difference (observed vs calculated), MPC1L (2–136) / Mass difference (observed vs calculated), MPC1L (5–136) / Mass difference (observed vs calculated), MPC2 (2–137): MPC1L/MPC2 after reaction with compound; for Covalent modification of MPC protomers (molecular mass change): folded MPC1L/MPC2 incubated with compound, ESI-MS
T1 construct: MPC1L (2–136); MPC2 (2–137); eight-histidine tag (C, cleaved yes); TEV protease cleavage site (part stays on MPC2 after digestion) (C, cleaved yes); made in house; host or cells: Saccharomyces cerevisiae SHY15 (mpc triple deletion strain), purified from mitochondria
T1 sequence (P0DKB6 2-136 limits assumed): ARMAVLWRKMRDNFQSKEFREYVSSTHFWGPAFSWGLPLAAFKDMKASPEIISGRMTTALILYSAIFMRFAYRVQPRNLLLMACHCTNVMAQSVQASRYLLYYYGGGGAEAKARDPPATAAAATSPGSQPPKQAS
T1 sequence (O95563 2-127 limits assumed): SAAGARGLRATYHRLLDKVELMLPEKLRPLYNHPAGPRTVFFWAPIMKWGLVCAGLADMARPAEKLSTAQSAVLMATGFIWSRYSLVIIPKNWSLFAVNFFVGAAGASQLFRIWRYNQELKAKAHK
Method: Different MPC inhibitors (Table1) or sulfhydryl reagents were first incubated with MPC1L/MPC2 in a folded state, then the protein molecular masses were measured by electrospray mass spectrometry. The MPC subunits (10 μg) were resolved by reverse-phase HPLC on a PLRP-S column (1.0 mm i.d. X 75 mm; VARIAN) using a gradient of 2-propanol in a solvent system compatible with the recovery of membrane proteins (Carroll et al., 2009). The eluate (50 μL/min) was introduced into a QTRAP4000 (SCIEX) mass spectrometer operating in positive ion single MS mode. The instrument was scanned from 700 m/z to 2300 m/z after calibration with ions from a mixture of 1.0 μM of myoglobin and 1.5 μM trypsinogen. Molecular masses were obtained by reconstruction of the spectra of multiply charged ions using PeakView (SCIEX).

human MPC1L/MPC2 complex [2] = target: T2, human MPC1L/MPC2 complex (Homo sapiens, UniProt O95563+P0DKB6); test: CPM thermostability shift assay, purified MPC1L/MPC2; format: binding; details: for ΔTm at 100 µM / Tm, CPM assay / ∆Tm, CPM assay (thermal shift compared to no-ligand control): inhibitor 100 μM; for ΔTm at 100 µM: read-out: ∆Tm, CPM assay (thermal shift compared to no-ligand control); for Tm, CPM assay: unliganded 51.3 ± 0.2, mean ± s.d., 3 biological repeats
T2 construct: eight-histidine tag (C, cleaved yes); TEV protease cleavage site (part stays on MPC2 after digestion) (C, cleaved yes); made in house; host or cells: Saccharomyces cerevisiae SHY15 (mpc triple deletion strain), purified from mitochondria
T2 sequence (P0DKB6 2-136): T1 sequence (P0DKB6 2-136 limits assumed)
T2 sequence (O95563 2-127): T1 sequence (O95563 2-127 limits assumed)
Method: (§1) The assessment of ligand binding was performed via shifts in protein thermostability upon binding using thermal denaturation on a rotary quantitative PCR (qPCR) instrument (Qiagen Rotor-Gene Q 2plex HRM, Venlo, Netherlands), as previously described. In this method, cysteine residues, buried within the protein structure, become solvent-exposed during denaturation in a temperature ramp and then react with 7-diethylamino-3-(4-maleimidophenyl)-4-methylcoumarin (CPM) to form fluorescent-adducts. Briefly, a CPM working solution was prepared by diluting the CPM stock (5 mg/mL in dimethyl sulfoxide) 50-fold into assay buffer (20 mM Tris–HCl, pH 7.4, 150 mM NaCl, 0.1% (w/v) LMNG, 0.1 mg/mL TOCL) and incubated for 10 min at room temperature. In each analysis, performed in duplicates or triplicates, 3 μg of purified MPC was diluted into 45 μL of assay buffer containing the desired concentration of the inhibitor then incubated for 10 min on ice. Next, 5 μL of the CPM working solution were added. Samples were incubated on ice for an additional 10 min then subjected to a temperature ramp of 5.6 °C/min. The fluorescence increase was monitored with the HRM channel of the instrument (excitation at 440–480 nm, emission at 505–515 nm). Unfolding profiles were analysed with the Rotor-Gene Q software 2.3, and the peaks of their derivatives were used to determine the apparent melting temperature.

mammalian MPCs = details: cited from earlier work; for Ki: isolated mitochondria
[3] = target: T3, human MPC1L/MPC2 hetero-dimer (Homo sapiens, UniProt O95563+P0DKB6); test: Inhibition of [14C]-pyruvate homo-exchange in MPC1L/MPC2 proteoliposomes; format: biochemical; details: for Inhibition of pyruvate transport, residual activity compared to control: compound 100 μM; for Inhibition of pyruvate transport, residual activity compared to control / IC50: MPC1L/MPC2 proteoliposomes; for IC50: 50 μM [14C]-pyruvate homo-exchange, mean ± s.d., read-out: IC50 of pyruvate transport inhibition; for Inhibitory potency for human MPC1L/MPC2 compared to yeast Mpc1/Mpc3: human vs yeast protein, yeast values ref 15
T3 construct: eight-histidine tag (C, cleaved yes); TEV protease cleavage site (part stays on MPC2 after digestion) (C, cleaved yes); made in house; host or cells: Saccharomyces cerevisiae SHY15 (mpc triple deletion strain), purified from mitochondria
T3 sequence (P0DKB6 2-136): T1 sequence (P0DKB6 2-136 limits assumed)
T3 sequence (O95563 2-127): T1 sequence (O95563 2-127 limits assumed)
Method: Egg L-α-phosphatidylcholine 99% (w/v) (Avanti Polar Lipids, AL, USA) and TOCL were mixed in a 20:1 (w/w) ratio, dried under a stream of nitrogen and washed once with methanol before being dried again. Lipids were hydrated in 20 mM Tris–HCl, pH 8.0, 50 mM NaCl to a concentration of 12 mg/mL. Unlabeled pyruvate was added as a freshly made concentrated stock at a final concentration of 5 mM for internalisation. Lipids were solubilised with 1.2% (v/v) pentaethylene glycol monodecyl ether (Sigma) and freshly purified protein was added at a lipid-to-protein ratio of 250:1 (w/w). Samples were incubated on ice for 5 min, then liposomes were formed by the step-wise removal of pentaethylene glycol monodecyl ether by five additions at 20 min intervals of 60 mg Bio-Beads SM-2 (Bio-Rad, Watford, UK) with gentle mixing at 4 °C. A final addition of 480 mg Bio-Beads was incubated with the samples overnight. Proteoliposomes were first separated from the Bio-Beads by passage through empty spin columns (Bio-Rad, Watford, UK) and subsequently pelleted at 120,000×g for 60 min. The proteoliposomes were resuspended with a thin needle in 150 μL of their supernatant after the rest of the supernatant was removed.
The time course of pyruvate homo-exchange was measured at room temperature. The transport was initiated by diluting proteoliposomes 200-fold into external buffer, 20 mM MES, pH 6.4, 50 mM NaCl, containing 50 μM [^14C]-pyruvate (500,000 dpm, Perkin Elmer, MA, USA). The reaction (0–30 s) was terminated by rapid dilution into 8 volumes of ice-cold internal buffer (20 mM Tris–HCl, pH 8.0, 50 mM NaCl), followed by rapid filtration through cellulose nitrate 0.45 μm filters (Millipore, Gillingham, UK) and washing with an additional 8 volumes of buffer. The filters were dissolved in Ultima Gold scintillation liquid (Perkin Elmer, MA, USA) and the radioactivity was counted with a Perkin Elmer Tri-Carb 2800 RT liquid scintillation counter. […] The data analysis was performed with non-linear regression fittings using GraphPad Prism 7.0d ([Inhibitor] vs response, variable slope). The specific uptake rates were calculated based on the amount of protein used in reconstitutions, as estimated from bicinchoninic acid assay. The biological repeats represent independent proteoliposome preparations using protein from independent purifications.

human MPC1L/MPC2 complex [4] = target: T2, human MPC1L/MPC2 complex; test: nano-DSF thermostability shift assay, purified MPC1L/MPC2; format: binding; details: inhibitor 100 μM; for Tm, nano-DSF: unliganded 51.9 ± 0.1, mean ± s.d., 2 biological repeats
Method: Ligand binding was also assessed using dye-free nano differential scanning fluorimetry (nano-DSF) to monitor fluorescence changes due to altered environments of tryptophan and tyrosine residues during unfolding. Protein samples in buffer containing 20 mM Tris–HCl pH 7.4, 150 mM NaCl, 0.1% (w/v) LMNG, 0.1 mg/mL TOCL, in the presence or absence of the indicated concentrations of small molecule inhibitors, were loaded into capillary tubes, and a temperature ramp of 5 °C/min was applied. The intrinsic fluorescence was measured using the NanoTemper Prometheus NT.48 (NanoTemper, München, Germany).

MPC1/MPC2 hetero-dimer = target: T4, MPC1/MPC2 hetero-dimer (Homo sapiens, UniProt O95563+Q9Y5U8); test: CPM thermostability shift assay, MPC1/MPC2; format: binding; details: 100 μM inhibitor
T4 construct: eight-histidine tag (C, cleaved yes); Factor Xa cleavage site (C, cleaved yes); made in house; host or cells: Saccharomyces cerevisiae SHY15 (mpc triple deletion strain), purified from mitochondria
T4 sequence (Q9Y5U8 2-109 limits assumed): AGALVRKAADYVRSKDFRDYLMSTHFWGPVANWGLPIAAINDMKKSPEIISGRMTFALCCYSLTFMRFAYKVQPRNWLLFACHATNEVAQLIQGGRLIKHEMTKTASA
T4 sequence (O95563 2-127 limits assumed): T1 sequence (O95563 2-127 limits assumed)
Method: as §1

MPC2 protomer = target: T5, MPC2 protomer (Homo sapiens, UniProt O95563); test: CPM thermostability shift assay, individually purified MPC2; format: binding; details: 100 μM inhibitor
T5 construct: Factor Xa or TEV cleavage site followed by eight-histidine tag (C); made in house
T5 sequence (O95563 1-127): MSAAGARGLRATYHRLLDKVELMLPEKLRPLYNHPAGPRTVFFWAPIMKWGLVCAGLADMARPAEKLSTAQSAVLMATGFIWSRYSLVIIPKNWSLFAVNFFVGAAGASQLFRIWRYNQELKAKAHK
Method: as §1

SMILES	Mass difference (observed vs calculated), MPC1L (2–136) [1] [Da]	Mass difference (observed vs calculated), MPC1L (5–136) [1] [Da]	Mass difference (observed vs calculated), MPC2 (2–137) [1] [Da]	Covalent modification of MPC protomers (molecular mass change) [1]	ΔTm at 100 µM (human MPC1L/MPC2 complex [2]) [°C]	Tm, CPM assay (human MPC1L/MPC2 complex [2]) [°C]	Ki (mammalian MPCs) [nM]	Inhibition of pyruvate transport, residual activity compared to control [3]	∆Tm, nano-DSF (human MPC1L/MPC2 complex [4]) [°C]	Tm, nano-DSF (human MPC1L/MPC2 complex [4]) [°C]	Potency relative to α-cyano-cinnamate (times less potent) (mammalian MPCs)	Thermostability shift of MPC1/MPC2 (MPC1/MPC2 hetero-dimer)	Thermostability shift of MPC2 alone (MPC2 protomer)	Thermal shift in the CPM assay (human MPC1L/MPC2 complex [2]; compound 1 mM)	∆Tm, CPM assay (thermal shift compared to no-ligand control) (human MPC1L/MPC2 complex [2])	IC50 [3] [nM]	Inhibitory potency for human MPC1L/MPC2 compared to yeast Mpc1/Mpc3 [3]	∆Tm, nano-DSF (human MPC1L/MPC2 complex [4]; listed as lonidamine)	Effect on pyruvate transport ([3]; 1 mM final concentration)
N#CC(=Cc1cn(-c2ccccc2)c2ccccc12)C(=O)O [UK5099, α-cyano-β-(1-phenylindol-3-yl)-acrylate]	0.6	0.6	1.7	no molecular mass differences	11.2 ± 1.1	62.5 ± 0.9	~50	completely inhibited	9.2 ± 0.7	61.1 ± 0.6									
O=C(O)C(F)=Cc1ccccc1 [α-fluorocinnamate]											1,000 times								
N#CC(=Cc1ccc(O)cc1)C(=O)O [CHC, α-cyano-4-hydroxy-cinnamate]					8.3 ± 0.6	59.6 ± 0.4		completely inhibited	7.0 ± 0.5	58.9 ± 0.4		strong shifts	neither CHC nor zaprinast showed any shift						
O=C(O)c1nn(Cc2ccc(Cl)cc2Cl)c2ccccc12 [Lonidamine, lonidamine]					-0.2 ± 0.5	51.1 ± 0.3	2500		0.6 ± 0.3	52.5 ± 0.2				negative thermal shift	No thermal shifts	4600 ± 1300	much higher potencies	No thermal shifts	
CCCC(CCC)C(=O)O [Valproic acid, valproic acid]					0	51.3 ± 0.3			-0.1 ± 0.3	51.8 ± 0.2					no effect at all				minimal
CCCOc1ccccc1-c1nc2nn[nH]c2c(=O)[nH]1 [Zaprinast]	0.4	0.3	1.5	no molecular mass differences	7.5 ± 0.6	58.8 ± 0.4		completely inhibited	6.3 ± 0.4	58.2 ± 0.3		strong shifts	neither CHC nor zaprinast showed any shift			321 ± 42	much higher potencies		
